In general, LOAEL refers to the lowest tested level that showed an adverse finding. For orientation: NOAEL means the highest dose or exposure tested at which no adverse effect was seen. One may read the LD50 as the dose at which mortality reaches 50%. Usually LC50 stands for the concentration lethal to half of the exposed cells or organisms.

From EPA's ToxValDB 9.5 come the findings set out here.

The subject of series [1] is Rattus norvegicus. Particulars: chronic, M/F.
The subject of series [2] is Canidae. Particulars: chronic; duration: 16 months; oral; diet; M/F; Beagle; Urinary.
Series [3] has as its system Rattus norvegicus. Particulars: chronic; duration: 2 years; oral; diet; M/F; Osborne-Mendel; hepatic.
Series [4] has as its system Mus musculus. Particulars: developmental; duration: 7 days; oral; gavage; M/F; ICR; developmental.
In series [5] the test system is Rattus norvegicus. To be noted: repeat dose other; oral.
Series [6] deals with Mus musculus. To be noted: duration: 13 weeks, oral, M/F, CD1, Hepatotoxic lesions (males).
In the next series the test system is Monkey. To be noted: developmental; oral; M/F; reduced birth weight.
Another series relates to Neovison sp. Particulars: repeat dose other; oral; Mink.
Series [7] concerns Rattus norvegicus. To be noted: for LC50 / LD50: acute.
Series [8] has as its system Rattus norvegicus. Briefly: LC50. To be noted: acute; oral; gavage.
The test system of series [9] is Canidae. To be noted: repeat dose other; oral; Dog Other.
The subject of series [10] is Rattus norvegicus. To be noted: chronic; duration: 2 years; oral; drinking water; Liver: Lesions.
Series [11] deals with Rattus norvegicus. Particulars: short-term; duration: 28 days; oral; gavage; M/F; Sprague-Dawley; Urinalysis: N/A(measured only 16h volume) + Absolute Organ Weight: Liver increase + Relative Organ Weight: Liver increase + Necropsy: Kidney….
Series [12] relates to Canidae. Particulars: subchronic; duration: 3 months; oral; diet; Beagle.
The subject of a further series is Cricetulus sp. To be noted: acute; oral; Chinese.
Series [13] has as its system Mus musculus. To be noted: duration: 10 days, oral, gavage, NMRI.
The mark [14] stands for this setting: reproduction developmental, duration: 12 days, oral, gavage, F, New Zealand.
The mark [15] stands for this setting: developmental, duration: 10 days, oral, gavage, Sprague-Dawley.
[16] abbreviates: reproduction developmental, duration: 10 days, oral, gavage, F, Sprague-Dawley.
Where [17] appears, read: short-term, duration: 28 days, oral, diet, Sprague-Dawley.
[18] abbreviates: subchronic, duration: 90 days, oral, diet, Sprague-Dawley.
Setting [19] is: inhalation, liver toxicity (fatty change).
Setting [20] is: oral, drinking water, liver toxicity (fatty change).

“And” between values parts separate entries of the source, which are not always exact repeats. Equal values may be shown once.

`ClC1=C(Cl)[C@]2(Cl)[C@H]3[C@H]([C@@H]4C=C[C@H]3C4)[C@@]1(Cl)C2(Cl)Cl` [Aldrin]: the LOAEL turned out to be 0.025 mg/kg-day in the series on Rattus norvegicus [1] (oral, diet, liver toxicity); 0.043 mg/kg-day in the series with Canidae [2]; 0.037 mg/kg-day with Rattus norvegicus [3]; 2 mg/kg-day in the series with Mus musculus [4]; 1 mg/kg-day in the series on Rattus norvegicus [5]. This compound also yielded an NOAEL in the series on Rattus norvegicus [5] of 0.2 mg/kg-day.
Regarding `CC1CCc2cc(F)cc3c(=O)c(C(=O)O)cn1c23` (centres undefined) [Flumequine], the NOEL amounted to 25 mg/kg-day in the series with Mus musculus [6] (feed) and 25 mg/kg-day in the series on Mus musculus [6] (subchronic, diet).
Take `Clc1cccc(-c2cc(Cl)cc(Cl)c2)c1` [Aroclor 1016]: in the series with Monkey, the LOAEL amounted to 0.028 mg/kg-day and the NOAEL turned out to be 0.007 mg/kg-day. In the series with Neovison sp., the LOAEL came out at 3.43 mg/kg-day and the NOAEL was 1.37 mg/kg-day.
For `O=C1c2c(Br)c(Br)c(Br)c(Br)c2C(=O)N1CCN1C(=O)c2c(Br)c(Br)c(Br)c(Br)c2C1=O` [1,2-Bis(tetrabromophthalimido)ethane], the LOAEL was under 1000 mg/kg-day in the series with Oryctolagus sp. (setting [14]) and at least 1000 mg/kg-day in the series with Rattus norvegicus [7] (setting [18]). For the same compound, the no-observed-adverse-effect level (NOAEL) in the series on Oryctolagus sp. (setting [14]), in the series with Rattus norvegicus [7] (setting [15]), in the series with Rattus norvegicus [7] (setting [16]) and in the series on Rattus norvegicus [7] (setting [18]) was at least 1000 mg/kg-day each time. The “LOAEL (% diet)” value in the series on Rattus norvegicus [7] (setting [17]) was over 1. The “NOAEL (% diet)” value in the series on Rattus norvegicus [7] (setting [17]) is at least 1; in the series on Rattus norvegicus [7] (setting [18]) it was 1. In the series on Rattus norvegicus [8], this compound registered an LD50 of over 7500 mg/kg.
As for `C=C(Cl)Cl` [1,1-Dichloroethylene], the lowest observed adverse effect level (LOAEL) with Rattus norvegicus [1] (setting [19]) worked out at 297 mg/m3; in the series with Rattus norvegicus [1] (setting [20]) it was 14 mg/kg-day; with Rattus norvegicus [10] it was 9 mg/kg-day. Moreover, the NOAEL worked out at 99.1 mg/m3 in the series on Rattus norvegicus [1] (setting [19]), 9 mg/kg-day in the series with Rattus norvegicus [1] (setting [20]), 2.5 mg/kg-day with Canidae [9] and 30 mg/kg-day with Rattus norvegicus [5].
As to `CCCCCCCCCCCCCCCCCCOC(=O)CCc1cc(C(C)(C)C)c(O)c(C(C)(C)C)c1` [Octadecyl 3-(3,5-di-tert-butyl-4-hydroxyphenyl)propionate], the NOAEL in the series with Rattus norvegicus [11] was 30 mg/kg-day; in the series with Canidae [12] it was ≥ 31.5 mg/kg-day and ≤ 34.5 mg/kg-day; in the series on Rattus norvegicus [7] (chronic, duration: 104 weeks, oral, diet, Cfy), 39 mg/kg-day; with Rattus norvegicus [7] (setting [15]), over 1000 mg/kg-day; in the series on Rattus norvegicus [7] (reproduction developmental, duration: 10 months, oral, diet, COBS(R)CD(R), generation: F0), 1500 ppm; with Rattus norvegicus [7] (reproduction developmental, duration: 10 months, oral, diet, COBS(R)CD(R), generation: F1) it was under 500 ppm. Also, the NOAEL in the series with Rattus norvegicus [7] (reproduction developmental, duration: 10 months, oral, diet, COBS(R)CD(R), generation: F2) is under 500 ppm; in the series on Rattus norvegicus [7] (setting [16]), 150 mg/kg-day; in the series on Rattus norvegicus [7] (reproduction developmental, duration: 10 days, oral, gavage, generation: F0), 150 mg/kg-day; in the series on Rattus norvegicus [7] (reproduction developmental, oral, diet, F) it was 1500 ppm; with Rattus norvegicus [7] (reproduction developmental, oral, diet, generation: F0) it was 1500 ppm; with Rattus norvegicus [7] (short-term, duration: 21 days, inhalation, RAI f (SPF)), over 0.543 mg/L. In addition, the NOAEL with Rattus norvegicus [7] (short-term, duration: 28 days, oral, diet, F) is 1000 mg/kg-day; in the series on Rattus norvegicus [7] (short-term, duration: 28 days, oral, diet, M), 100 mg/kg-day; with Rattus norvegicus [7] (short-term, duration: 28 days, oral, gavage, Sprague-Dawley), 30 mg/kg-day; in the series with Mus musculus [13] (developmental), over 1000 mg/kg-day; in the series with Mus musculus [13] (reproduction developmental, F), 500 mg/kg-day. For the same compound, the LD50 in the series on Oryctolagus sp. (acute, dermal) is over 2000 mg/kg; in the series on Cricetulus sp., over 6000 mg/kg; in the series on Rattus norvegicus [7] (injection, Intraperitoneal) it was over 1000 mg/kg; with Rattus norvegicus [7] (injection, intraperitoneal), over 1000 mg/kg; in the series on Rattus norvegicus [7] (oral) it was over 5000 mg/kg. Moreover, the LC50 was over 1.8 µg/mL in the series with Rattus norvegicus [7] (inhalation) and over 1.8 µg/mL with Rattus norvegicus [7] (inhalation, particle). In addition, the LOAEL in the series on Rattus norvegicus [7] (developmental, oral, diet) was found to be 500 ppm.
